This passage reports IC50 results from patent publication US10093678B2, “Azaspiro derivatives as TRPM8 antagonists” (RaQualia Pharma Inc., priority 2014, dated 2018).

The structures appear in SMILES notation. pIC50: −log10 of the molar value.

The target of the assay is T1, human TRPM8 (Homo sapiens, UniProt Q7Z2W7).
T1 construct: expressed in transfected cells; host or cells: HEK293
T1 sequence (Q7Z2W7 whole entry): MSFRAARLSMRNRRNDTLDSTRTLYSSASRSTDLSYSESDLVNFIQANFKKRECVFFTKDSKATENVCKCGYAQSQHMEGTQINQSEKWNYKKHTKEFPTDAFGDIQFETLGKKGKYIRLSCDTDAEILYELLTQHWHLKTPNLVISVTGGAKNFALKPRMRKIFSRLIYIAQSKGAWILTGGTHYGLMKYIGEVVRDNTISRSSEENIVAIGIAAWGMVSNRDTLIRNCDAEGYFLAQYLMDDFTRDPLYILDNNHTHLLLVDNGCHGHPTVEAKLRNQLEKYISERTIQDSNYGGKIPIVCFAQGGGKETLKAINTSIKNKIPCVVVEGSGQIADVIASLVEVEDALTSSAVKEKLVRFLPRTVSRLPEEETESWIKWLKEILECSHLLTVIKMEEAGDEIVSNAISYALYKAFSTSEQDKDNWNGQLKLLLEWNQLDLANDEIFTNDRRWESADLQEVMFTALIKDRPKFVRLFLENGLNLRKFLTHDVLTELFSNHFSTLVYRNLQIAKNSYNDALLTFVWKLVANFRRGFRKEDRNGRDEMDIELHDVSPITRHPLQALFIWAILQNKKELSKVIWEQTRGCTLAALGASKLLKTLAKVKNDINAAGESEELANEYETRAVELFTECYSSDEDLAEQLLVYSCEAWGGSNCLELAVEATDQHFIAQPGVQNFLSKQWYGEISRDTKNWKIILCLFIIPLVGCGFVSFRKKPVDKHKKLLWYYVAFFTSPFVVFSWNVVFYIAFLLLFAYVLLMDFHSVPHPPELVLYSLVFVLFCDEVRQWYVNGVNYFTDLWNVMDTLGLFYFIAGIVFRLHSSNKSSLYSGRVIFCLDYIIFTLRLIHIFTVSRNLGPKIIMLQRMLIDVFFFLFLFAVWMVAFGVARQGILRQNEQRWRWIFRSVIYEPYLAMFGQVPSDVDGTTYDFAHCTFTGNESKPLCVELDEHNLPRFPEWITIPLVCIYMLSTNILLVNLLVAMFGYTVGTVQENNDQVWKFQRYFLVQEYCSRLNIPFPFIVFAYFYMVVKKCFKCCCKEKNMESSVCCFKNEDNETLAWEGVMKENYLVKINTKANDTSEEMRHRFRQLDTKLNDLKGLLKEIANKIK
Kind of assay: Menthol-induced Ca2+ influx in HEK293 cells stably expressing human TRPM8. The assay is classed as cell-based. The note with it: 30 microM menthol-induced Ca2+ influx, read-out: IC50 against TRPM8. Here is the method:
Measurement of the Menthol-Induced Ca^2+ Influx in HEK293 Cells Stably Expressing Human TRPM8
A cell-based Ca^2+ influx assay using HEK293 cells stably expressing human TRPM8 is used to identify the activity of compounds.
HEK293 cells stably expressing human TRPM8 are grown in T175 flasks at 37° C. in a 5% CO2 humidified incubator to about 80% confluence. Media composition consists of Dulbecco's Modified Eagle Medium (high glucose), 10% fetal calf serum (FCS), 100 units/mLPenicillin, 100 microg/mL Streptomycin and 600 microg/mL Geneticine. At 24 hours prior to assay, cells are seeded in poly-D-lysine coated 384-well plates (BD FALCON) at a density of 30,000 cells per well in culture medium and grown overnight in 5% CO2 at 37° C. On the assay day, growth media is removed and cells are loaded with 0.5 microM Fluo4-AM (Molecular Probes) and 0.005% Pluronic F-127 dissolved in assay buffer (Hank's balanced salt solution (HBSS), 19.4 mM HEPES pH7.4, 2.5 mM Probenecid) for 1 hour at room temperature. After washing with assay buffer, the cells are preincubated with various concentrations of the compounds for 5 min. The changes in intracellular calcium concentration by addition of 30 microM menthol are monitored by the cell imaging technology by Hamamatsu Photonics Functional Drug Screening System (FDSS).
The IC50 values for compounds of the present invention are determined from 11-point dose-response studies. Curves are generated using the average of duplicate wells for each data point. Finally, the IC50 values are calculated with the best-fit dose curve determined by XLfit (ID Business Solutions Ltd.).
Take `O=C(CN1C(=O)NC2(CCC(F)(F)CC2)C1=O)c1cnc(-c2ccccc2CO)cn1` [Example 12-3]: the pIC50 is more than 7.00. For the compound `O=C(CN1C(=O)NC2(CCC(F)(F)CC2)C1=O)c1ccc(-c2nccnc2OCCO)cc1` [Example 6-54, 8,8-difluoro-3-(2-(4-(3-(2-hydroxyethoxy)pyrazin-2-yl)phenyl)-2-oxoethyl)-1,3-diazaspiro[4.5]decane-2,4-dione], the pIC50 is more than 7.00. The value for `O=C(CN1C(=O)NC2(CCCCC2)C1=O)c1ccc(-c2ccccc2)cc1F` [Example 13-20] was more than 7.00; that for `O=C(CN1C(=O)NC2(CCC(F)(F)CC2)C1=O)c1ccc(-c2cccnc2)cc1` [Example 13-48] was more than 7.00; that for `O=C(CN1C(=O)NC2(CCC(F)(F)CC2)C1=O)c1ccc(-n2ccc3ccncc32)nc1` [Example 19-8] was more than 7.00. The figure for `Cc1nccnc1-c1ccc(C(=O)CN2C(=O)NC3(CCC(F)(F)CC3)C2=O)cc1F` [Example 8-3] is more than 7.00; for `Cc1cccc(-n2c(C)cc(C(=O)CN3C(=O)NC4(CCC(F)(F)CC4)C3=O)c2C)c1` [Example 3-5] it is more than 7.00. With `O=C(CN1C(=O)NC2(CCC(F)(F)CC2)C1=O)c1ccc(-c2ccnc3ccccc23)cc1` [Example 13-43], the pIC50 was more than 7.00. With `Cc1ccncc1-c1c(C)sc(C(=O)CN2C(=O)NC3(CCC(F)(F)CC3)C2=O)c1C` [Example 15-4], the pIC50 is more than 7.00. The value for `Cc1cc(C(=O)CN2C(=O)NC3(CCC(F)(F)CC3)C2=O)n(C)c1-c1ccccc1CO` [Example 16-8] was more than 7.00; that for `Cc1nc(C(=O)CN2C(=O)NC3(CCC(F)(F)CC3)C2=O)n(C)c1-c1ccccc1` [Example 17-7] was more than 7.00. Take `N#Cc1cccc(-c2ccc(C(=O)CN3C(=O)NC4(CCCCC4)C3=O)c(F)c2)c1` [Example 13-19]: the negative-log IC50 (pIC50) was more than 7.00. Regarding `N#CCc1ccccc1-c1ccc(C(=O)CN2C(=O)NC3(CCC(F)(F)CC3)C2=O)cc1` [Example 6-108], the pIC50 is more than 7.00. Consider `O=C(CN1C(=O)NC2(CCC(F)(F)CC2)C1=O)c1ccc(-c2cnn3cccnc23)cc1` [Example 6-68], for which the negative-log IC50 (pIC50) was more than 7.00. As for `O=C(CN1C(=O)NC2(CCCCC2)C1=O)c1ccc(-c2ccccc2F)nc1` [Example 9-4], the pIC50 was more than 7.00. The value for `O=C(CN1C(=O)NC2(CCC(F)(F)CC2)C1=O)c1ccc(Cc2ccccn2)cc1` [Example 6-119] was more than 6.30; that for `Cc1nccnc1-c1ccc(C(=O)CN2C(=O)NC3(CCC(F)(F)CC3)C2=O)cc1` [Example 6-11] was more than 7.00. In the case of `O=C(CN1C(=O)NC2(CCC(F)(F)CC2)C1=O)c1ccc(-c2cccc3c2CCN3)cc1` [Example 6-72], the pIC50 is more than 6.30.

On to `O=C(CN1C(=O)NC2(CCCCC2)C1=O)c1ccc(-c2ccccc2CO)cc1` [Example 13-1], for which the pIC50 was more than 7.00. The figure for `COc1ccncc1-c1ccc(C(=O)CN2C(=O)NC3(CCC(F)(F)CC3)C2=O)cc1` [Example 13-39] is more than 7.00.

As to `Cc1ccc(C)c(-c2ccc(C(=O)CN3C(=O)NC4(CCC(F)(F)CC4)C3=O)cc2)c1` [Example 6-78], the pIC50 was more than 6.30.

For `O=C(CN1C(=O)NC2(CCC(F)(F)CC2)C1=O)c1ccc(-c2cncc3[nH]ncc23)nc1` [Example 9-27], the pIC50 was more than 6.30. The figure for `O=C(CN1C(=O)NC2(CCC(F)(F)CC2)C1=O)c1ccc(-c2cccnc2)nc1` [Example 5-1] is more than 7.00; for `O=C(CN1C(=O)NC2(CCC(F)(F)CC2)C1=O)c1ccc(-n2c(C3CC3)nc3cccnc32)cc1` [Example 24-3] it is more than 6.30; for `Cc1ccc2nc(C(F)(F)F)n(-c3ccc(C(=O)CN4C(=O)NC5(CCC(F)(F)CC5)C4=O)cc3)c2n1` [Example 24-7, 8,8-difluoro-3-(2-(4-(5-methyl-2-(trifluoromethyl)-3H-imidazo[4,5-b]pyridin-3-yl)phenyl)-2-oxoethyl)-1,3-diazaspiro[4.5]decane-2,4-dione] it is more than 8.00. The value for `Cc1ccnnc1-c1ccc(C(=O)CN2C(=O)NC3(CCC(F)(F)CC3)C2=O)cc1` [Example 6-14] was more than 7.00; that for `O=C(CN1C(=O)NC2(CCC(F)(F)CC2)C1=O)c1ccc(-c2cccnc2CO)c(F)c1` [Example 8-5] was more than 7.00. The value for `Cc1cc(C(=O)CN2C(=O)NC3(CCCCC3)C2=O)sc1-c1cccnc1` [Example 14-1] was more than 7.00; that for `Cc1sc(C(=O)CN2C(=O)NC3(CCC(F)(F)CC3)C2=O)c(C)c1-c1cncnc1` [Example 15-5] was more than 7.00.

For the compound `CCc1cc(C(=O)CN2C(=O)NC3(CCCCC3)C2=O)c(C)n1-c1cc(C)on1` [Example 1-14], the pIC50 was more than 6.30. The value for `O=C(CN1C(=O)NC2(CCC(F)(F)CC2)C1=O)c1ccc(-c2cccc3[nH]ccc23)nc1` [Example 9-10] was more than 8.00. The value for `O=C(CN1C(=O)NC2(CCCCCC2)C1=O)c1ccc(Oc2cccnn2)cc1` [Example 5-41] was more than 7.00; that for `Cc1cc(C(=O)CN2C(=O)NC3(CCC(F)(F)CC3)C2=O)c(C)n1-c1ccc2ccccc2n1` [Example 3-20] was more than 6.30; that for `O=C(CN1C(=O)NC2(CCC(F)(F)CC2)C1=O)c1ccc(-c2cccc3cnccc23)cc1` [Example 13-41] was more than 7.00.

As to `O=C(CN1C(=O)NC2(CCC(F)(F)CC2)C1=O)c1ccc(N2C(=O)CCc3ccccc32)cc1` [Example 19-27], the pIC50 was more than 6.30.

Take `Cc1cc(C(=O)CN2C(=O)NC3(CCC(F)(F)CC3)C2=O)ccc1-c1cccc(C#N)c1` [Example 13-11]: the pIC50 was more than 7.00. The value for `O=C(CN1C(=O)NC2(CCC(F)(F)CC2)C1=O)c1ccc(-n2c(=O)[nH]c3ccccc32)cc1` [Example 19-22] was more than 7.00; that for `Cn1c(-c2cccc(C#N)c2)cnc1C(=O)CN1C(=O)NC2(CCC(F)(F)CC2)C1=O` [Example 17-3] was more than 7.00; that for `Cc1cccc(-n2c(C)nc(C(=O)CN3CC4(CCC(F)(F)CC4)OC3=O)c2C)c1` [Example 2-17] was more than 6.30. Regarding `Cc1cc(C(=O)CN2C(=O)NC3(CCCCC3)C2=O)c(C)n1-c1cccc(OCC2CC2)n1` [Example 3-28, 3-(2-(1-(6-(cyclopropylmethoxy)pyridin-2-yl)-2,5-dimethyl-1H-pyrrol-3-yl)-2-oxoethyl)-1,3-diazaspiro[4.5]decane-2,4-dione], the pIC50 is more than 6.30. The value for `O=C(CN1C(=O)NC2(CCC(F)(F)CC2)C1=O)c1ccc(-c2cnn3ccccc23)cc1` [Example 6-67] was more than 7.00; that for `O=C(CN1C(=O)NC2(CCC(F)(F)CC2)C1=O)c1ccc(-n2c(CO)nc3ccccc32)cc1` [Example 5-15, 8,8-difluoro-3-(2-(4-(2-(hydroxymethyl)-1H-benzo[d]imidazol-1-yl)phenyl)-2-oxoethyl)-1,3-diazaspiro[4.5]decane-2,4-dione] was more than 7.00. The figure for `O=C(CN1C(=O)NC2(CCC(F)(F)CC2)C1=O)c1ccc(-n2c(C(F)(F)F)nc3cccnc32)cc1` [Example 24-6, 8,8-difluoro-3-(2-oxo-2-(4-(2-(trifluoromethyl)-3H-imidazo[4,5-b]pyridin-3-yl)phenyl)ethyl)-1,3-diazaspiro[4.5]decane-2,4-dione] is more than 7.00; for `Cc1ccsc1-c1ccc(C(=O)CN2C(=O)NC3(CCC(F)(F)CC3)C2=O)cc1` [Example 6-29] it is more than 7.00. The figure for `Cc1nc2cccnc2n1-c1ccc(C(=O)CN2C(=O)NC3(CCCCCC3)C2=O)cc1` [Example 5-32] is more than 7.00. Turning to `COc1cc(C(=O)CN2C(=O)NC3(CCC(F)(F)CC3)C2=O)ccc1-c1cccnc1` [Example 5-3], the negative-log IC50 (pIC50) was more than 7.00. Turning to `O=C(CN1C(=O)NC2(CCC(F)(F)CC2)C1=O)c1ccc(-c2cccc3cccnc23)c(F)c1` [Example 13-21], the pIC50 was more than 7.00. The figure for `Cc1cc(C(=O)CN2C(=O)NC3(CCC(F)(F)CC3)C2=O)n(C)c1-c1cncc(F)c1` [Example 16-21] is more than 7.00. As to `Cc1ccncc1-c1ccc(C(=O)CN2C(=O)NC3(CCC(F)(F)CC3)C2=O)cc1` [Example 13-35], the pIC50 was more than 8.00. Regarding `Cc1sc(C(=O)CN2C(=O)NC3(CCC(F)(F)CC3)C2=O)c(C)c1-c1cccc(C#N)c1` [Example 15-3], the pIC50 is more than 7.00. The value for `O=C(CN1C(=O)NC2(CCC(F)(F)CC2)C1=O)c1ccc(-c2cccc3cccnc23)cc1` [Example 13-46] was more than 7.00; that for `O=C(CN1C(=O)NC2(CCC(F)(F)CC2)C1=O)c1cnc(N2C(=O)COc3ccccc32)cn1` [Example 19-25] was more than 7.00; that for `O=C(CN1C(=O)NC2(CCC(F)(F)CC2)C1=O)c1ccc(N2CCCc3ccccc32)nc1` [Example 19-11] was more than 7.00. The figure for `O=C(CN1C(=O)NC2(CCC(F)(F)CC2)C1=O)c1cc2cc(-c3cccnc3)ccc2o1` [Example 13-69] is more than 6.30; for `O=C(CN1C(=O)NC2(CCC(F)(F)CC2)C1=O)c1ccc(-c2ncccc2Cl)cc1` [Example 6-22] it is more than 7.00; for `O=C(CN1CC2(CCC(F)(F)CC2)OC1=O)c1ccc(-n2cnc3cccnc32)cc1` [Example 22-1] it is more than 7.00.
